Each structure is given as a SMILES string.

The first series can be described thus: Measurement of log P values by HPLC on reversed phase columns (methods [a] pH 2.3, [b] pH 2.7, [c] pH 7.8). In kind it is physicochemical. As to conditions: HPLC on reversed phase column, method [b], pH 2.7. The procedure, abridged: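 Retention times were converted to log P by linear interpolation between linear alkan-2-one standards (3 to 16 carbons) of known log P. Eluents, each with 10% to 95% acetonitrile gradient: phosphoric acid 0.1% at pH 2.3 [a]; formic acid 0.1% at pH 2.7, LC-MS [b]; ammonium hydrogen carbonate 0.001 molar at pH 7.8, LC-MS [c].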
For `Cc1nc(C(F)(F)F)c(C(=O)N[C@@H]2CC[C@H]2c2cccc(F)c2C(F)(F)F)s1` (relative stereo) [Example 625], the logP was 3.56^[b].

For the compound `O=C(N[C@@H]1CC[C@H]1c1ccc(Br)cc1C(F)(F)F)c1cccnc1C(F)(F)F` (relative stereo) [Example 658], the logP is 3.76^[b].

Regarding `O=C(N[C@@H]1CC[C@@H]1c1ccc(Cl)cc1C(F)(F)F)c1c(F)cccc1F` (relative stereo) [Example 702], the logP is 3.52^[b].

As to `O=C(N[C@@H]1CC[C@@H]1c1ccc(Cl)cc1C(F)(F)F)c1ccccc1C(F)(F)F` (relative stereo) [Example 704], the logP is 3.84^[b].

In the case of `O=C(N[C@@H]1CC[C@@H]1c1cccc(F)c1C(F)(F)F)c1cccc(Cl)c1` (relative stereo) [Example 597], the logP is 3.50^[b].

Regarding `O=C(N[C@@H]1CC[C@H]1c1ccc(Cl)cc1C(F)(F)F)c1ccccc1[N+](=O)[O-]` (relative stereo) [Example 712], the logP is 3.61^[b].

`Cc1nc(C(F)(F)F)c(C(=O)N[C@@H]2CC[C@@H]2c2cccc(F)c2C(F)(F)F)s1` (relative stereo) [Example 626]: the logP was 3.28^[b].

For the compound `O=C(N[C@@H]1CC[C@H]1c1cccc(F)c1C(F)(F)F)c1ncccc1Cl` (relative stereo) [Example 616], the logP was 3.30^[b].

In the case of `O=C(N[C@@H]1CC[C@H]1c1cccc(F)c1C(F)(F)F)c1ccccc1Br` (relative stereo) [Example 632], the logP is 3.57^[b].

With `O=C(N[C@@H]1CC[C@H]1c1ccccc1C(F)(F)F)c1ncccc1Br` (relative stereo) [Example 624], the logP is 3.34^[b].

As to `O=C(N[C@@H]1CC[C@H]1c1cccc(F)c1C(F)(F)F)c1cccc(Cl)c1` (relative stereo) [Example 596], the logP was 3.92^[b].

The series is the same for the next values; noted with them: HPLC on reversed phase column, method [c], pH 7.8.
`O=C(N[C@@H]1CC[C@H]1c1ccc(Br)cc1C(F)(F)F)c1cccnc1C(F)(F)F` (relative stereo) [Example 658]: the logP is 3.66^[c];.

For `O=C(N[C@@H]1CC[C@H]1c1ccccc1C(F)(F)F)c1ncccc1Br` (relative stereo) [Example 624], the logP was 3.27^[c];.

The same series, now with this note: HPLC on reversed phase columns, method [b], pH 2.7.
In the case of `Cn1cc(C(=O)NC2CCC2c2ccc(Cl)cc2C(F)(F)F)c(C(F)F)n1` (stereo not drawn) [Example 719], the logP was 3.17^[b].

Regarding `Cc1nn(C)cc1C(=O)NC1CC1c1ccc(Cl)cc1` (stereo not drawn) [Example 19], the logP is 2.63^[b].

With `Cn1cc(C(=O)NC2CC2c2ccccc2)c(C(F)(F)F)n1` (stereo not drawn) [Example 4], the logP is 2.34^[b].

For the compound `Cc1nn(C)c(F)c1C(=O)NC1CC1c1ccc(F)cc1` (stereo not drawn) [Example 18], the logP was 3.01^[b].

For `CCCc1nn(C)c(F)c1C(=O)N[C@@H]1CCC[C@@H]1c1ccc(F)c(F)c1` (relative stereo) [Example 87], the logP was 3.25^[b].

Consider `Cc1ncccc1C(=O)N[C@@H]1CCC[C@@H]1c1ccc(F)c(F)c1` (relative stereo) [Example 62], for which the logP is 1.67^[b].

For `COc1cscc1C(=O)N[C@@H]1CCC[C@@H]1c1ccc(F)c(F)c1` (relative stereo) [Example 78], the logP was 3.29^[b].

In the case of `O=C(N[C@@H]1CCC[C@@H]1c1ccc(F)c(F)c1)c1sccc1Cl` (relative stereo) [Example 80], the logP is 3.72^[b].

For `Cc1nc(C(F)(F)F)c(C(=O)N[C@@H]2CCC[C@@H]2c2ccc(F)c(F)c2)s1` (relative stereo) [Example 55], the logP was 3.19^[b].

As for `Cc1nc(C(F)(F)F)c(C(=O)NC2CCC2c2ccc(Cl)cc2C(F)(F)F)s1` (stereo not drawn) [Example 730], the logP was 4.03^[b].

With `O=C(N[C@@H]1C[C@H]1c1ccccc1Cl)c1c(Cl)cccc1Cl` (relative stereo) [Example 50], the logP was 3.32^[b].

On to `O=C(NC1CCC1c1c(Cl)cccc1Cl)c1cccnc1` (stereo not drawn) [Example 724], for which the logP was 2.17^[b].

The series is the same for the next values; noted with them: HPLC reversed phase, method [b] (pH 2.7).
On to `O=C(NC1CCCCC1c1ccc(Cl)cc1Cl)c1cccnc1Cl` (stereo not drawn) [Example 408], for which the logP was 3.76^[b].

Consider `O=C(NC1CCCCC1c1ccc(Cl)cc1Cl)c1ccccc1I` (stereo not drawn) [Example 415], for which the logP was 4.57^[b].

Consider `O=C(N[C@@H]1C[C@@H]1c1ccc(Cl)cc1Cl)c1sccc1I` (relative stereo) [Compound 582], for which the logP was 3.78^[b].

On to `O=C(NC1CCC1c1ccccc1Cl)c1ccc(Cl)cc1` (stereo not drawn) [Example 446], for which the logP was 3.70^[b].

In the case of `O=C(NC1CCCCC1c1c(F)cccc1F)c1cccnc1C(F)(F)F` (stereo not drawn) [Example 398], the logP was 3.26^[b].

Take `Cc1nc(C)c(C(=O)NC2CCCC2c2ccccc2C(F)(F)F)s1` (stereo not drawn) [Example 308]: the logP was 2.97^[b].

`O=C(NC1CCCC1c1ccccc1C(F)(F)F)c1ccccc1I` (stereo not drawn) [Example 285]: the logP was 3.81^[b].

Regarding `O=C(N[C@@H]1CC[C@@H]1c1c(F)cccc1C(F)(F)F)c1cccc(Cl)c1` (relative stereo) [Example 552], the logP is 4.26^[b].

For `O=C(NC1CCCCCC1c1ccccc1C(F)(F)F)c1cccnc1C(F)(F)F` (stereo not drawn) [Example 418], the logP is 3.94^[b].

`Cc1nn(C)cc1C(=O)NC1CCCC1c1ccccc1Cl` (stereo not drawn) [Example 292]: the logP was 2.24^[b].

Turning to `Cc1nc(C)c(C(=O)NC2CCCC2c2c(F)cccc2F)s1` (stereo not drawn) [Example 312], the logP was 2.65^[b].

Consider `O=C(NC1CCCC1c1ccccc1Cl)c1ccccc1Cl` (stereo not drawn) [Example 294], for which the logP was 3.42^[b].

With `O=C(NC1CCC1c1ccc(Cl)cc1Cl)c1cccnc1C(F)(F)F` (stereo not drawn) [Example 470], the logP was 3.45^[b].

As for `CC(C)Oc1ccc([C@H]2CCC[C@H]2NC(=O)c2cccnc2Cl)cc1` (relative stereo) [Example 326], the logP was 3.06^[b].

For the compound `Cn1cc(C(=O)N[C@@H]2CCCC[C@H]2c2ccccc2C(F)(F)F)c(C(F)F)n1` (relative stereo) [Example 288], the logP is 3.56^[b].

For `O=C(NC1CCCCC1c1ccccc1C(F)(F)F)c1ccccc1C(F)(F)F` (stereo not drawn) [Example 374], the logP was 4.21^[b].

Take `O=C(N[C@@H]1CC[C@@H]1c1c(F)cccc1C(F)(F)F)c1ccc(Cl)cc1Cl` (relative stereo) [Example 535]: the logP is 3.93^[b].

Turning to `O=C(NC1CCCCC1c1ccccc1C(F)(F)F)c1ccccc1C(F)(F)F` (stereo not drawn) [Example 390], the logP is 4.11^[b].

`O=C(N[C@@H]1CCC[C@@H]1c1ccccc1F)c1ccccc1I` (relative stereo) [Example 332]: the logP is 3.30^[b].

As for `O=C(NC1CCCCC1c1ccccc1C(F)(F)F)c1ccccc1Cl` (stereo not drawn) [Example 388], the logP was 4.02^[b].

Consider `O=C(NC1CC1c1ccc(Cl)cc1)c1c(F)cccc1C(F)(F)F` (stereo not drawn) [Example 270], for which the logP is 3.08^[b].

`O=C(NC1CCC1c1ccccc1C(F)(F)F)c1ncc(C(F)(F)F)cc1Cl` (stereo not drawn) [Example 437]: the logP was 3.88^[b].

In the case of `Cn1cc(C(=O)N[C@@H]2CC[C@@H]2c2ccccc2C(F)(F)F)c(C(F)F)n1` (relative stereo) [Example 263], the logP was 2.75^[b].

Turning to `O=C(NC1CC1c1ccc(Cl)cc1)c1c(F)cc(F)cc1F` (stereo not drawn) [Example 466], the logP is 2.80^[b].

Still in this series, the particulars now being: HPLC reversed phase, method [c] pH 7.8.
As to `CC(C)Oc1ccc([C@H]2CCC[C@H]2NC(=O)c2cccnc2Cl)cc1` (relative stereo) [Example 326], the logP is 2.99^[c];.

In the case of `O=C(N[C@@H]1CCC[C@@H]1c1ccccc1F)c1ccccc1I` (relative stereo) [Example 332], the logP was 3.28^[c];.

`O=C(NC1CC1c1ccc(Cl)cc1)c1c(F)cccc1C(F)(F)F` (stereo not drawn) [Example 270]: the logP is 3.03^[c];.

In the case of `O=C(NC1CC1c1ccc(Cl)cc1)c1c(F)cc(F)cc1F` (stereo not drawn) [Example 466], the logP is 2.78^[c];.

The series is the same for the next values; noted with them: method [b], HPLC reversed phase, pH 2.7.
Consider `O=C(NC1CC1c1ccccc1Cl)c1ccccc1C(F)(F)F` (stereo not drawn) [Example 230], for which the logP was 3.13^[b].

Take `N#Cc1ccccc1C(=O)NC1CCCC1c1ccc(F)c(F)c1` (stereo not drawn) [Example 137]: the logP was 2.96^[b].

For the compound `O=C(NC1CC1c1ccc(Cl)cc1)c1ccccc1I` (stereo not drawn) [Example 199], the logP is 3.24^[b].

As to `Cn1cc(C(=O)N(C2CC2)C2CCCCC2c2ccccc2)c(I)n1` (stereo not drawn) [Example 145], the logP was 3.60^[b].

On to `O=C(NC1CC1c1ccc(Cl)cc1Cl)c1ccccc1C(F)(F)F` (stereo not drawn) [Example 210], for which the logP is 3.73^[b].

In the case of `CCOc1nn(C)cc1C(=O)N[C@@H]1CCC[C@H]1c1ccc(F)c(F)c1` (relative stereo) [Example 127], the logP was 3.13^[b].

On to `O=C(NC1CCC1c1ccccc1Cl)c1ncc(C(F)(F)F)cc1Cl` (stereo not drawn) [Example 237], for which the logP was 3.96^[b].

As for `Cn1cccc1C(=O)N[C@@H]1CCC[C@H]1c1ccc(F)c(F)c1` (relative stereo) [Example 132], the logP is 3.23^[b].

Turning to `Cc1cc(C(=O)N(C2CC2)C2CCCC2c2ccccc2Cl)c(C)o1` (stereo not drawn) [Example 176], the logP is 4.95^[b].

Consider `Cc1nn(C)c(F)c1C(=O)N(C1CC1)C1CCCCC1c1ccccc1Cl` (stereo not drawn) [Example 154], for which the logP was 3.94^[b].

Take `CCc1nn(C)c(F)c1C(=O)N(C1CC1)C1CCCCC1c1ccc(Cl)cc1Cl` (stereo not drawn) [Example 161]: the logP is 5.08^[b].

`Cn1nc(C(F)F)c(C(=O)N(C2CC2)C2CCCCC2c2ccc(Cl)cc2Cl)c1F` (stereo not drawn) [Example 168]: the logP was 5.05^[b].

In the case of `Cc1cc(C(=O)N(C2CC2)C2CCCC2c2ccc(Cl)cc2Cl)c(C)o1` (stereo not drawn) [Example 175], the logP was 5.39^[b].

Take `O=C(N[C@@H]1CC[C@H]1c1ccccc1Cl)c1ccc(Cl)cc1Cl` (relative stereo) [Example 240]: the logP is 3.84^[b].

The same series, now with this note: method [c], HPLC reversed phase, pH 7.8.
Turning to `O=C(NC1CC1c1ccc(Cl)cc1)c1ccccc1I` (stereo not drawn) [Example 199], the logP is 3.19^[c];.

For the compound `O=C(NC1CC1c1ccc(Cl)cc1Cl)c1ccccc1C(F)(F)F` (stereo not drawn) [Example 210], the logP was 3.62^[c];.

Still in this series, the particulars now being: reversed phase HPLC columns, pH 2.7, HPLC on reversed phase columns, method [b] (pH 2.7); read-out: logP.
Regarding `Cc1nc(C(F)(F)F)c(C(=O)N[C@@H]2CCC[C@@H]2c2ccc(C(F)(F)F)cc2)s1` [Example 747], the chromatographic logP worked out at 3.71.

In the case of `O=C(N[C@@H]1CC[C@@H]1c1ccc(Cl)cc1C(F)(F)F)c1cccnc1Cl` [Example 739], the chromatographic logP stood at 3.09.

As to `O=C(N[C@@H]1C[C@]1(F)c1ccc(Cl)cc1)c1ccccc1Br` [Example 751], the chromatographic logP was found to be 2.84.
